In US20110269811A1, “INHIBITORS OF SEMICARBAZIDE-SENSITIVE AMINE OXIDASE (SSAO) AND VAP-1 MEDIATED ADHESION USEFUL FOR TREATMENT AND PREVENTION OF DISEASES” (priority 2006, published 2011):

How the values were obtained:
[1] = tested on: Non-Peptide Receptors, Peptide Receptors, Ion Channels; assay: Screening for receptors affected by SSAO inhibitor (specific ligand binding); settings: 10 μM concentration; receptor families listed
Experimental: A screening procedure was employed to determine whether compound I-1-Z affects specific ligand binding to various receptors. Ligand binding to the following receptors was not affected by a 10 μM concentration of compound I-1-Z:
Non-Peptide Receptors: Adenosine, Adrenergic, Benzodiazepine, Cannabinoid, Dopamine, GABA, Glutamate, Histamine, Melatonin, Muscarinic, Prostanoid, Purinergic, Serotonin, Sigma;
Peptide Receptors: Angiotensin II, Bombesin, Bradykinin, Calcitonin-related peptide, Chemokine, Cholecystokinin, Cytokine, Endothein, Galanin, Growth factor, Melanocortin, Neurokinin, Neuropeptide Y, Neurotensin, Opioid, Somatostatin, VIP, Vasopressin;
Ion Channels: Calcium, Potassium, Sodium. […]
For Table 4 below, the specific ligand binding to the receptors is defined as the difference between the total binding and the nonspecific binding determined in the presence of an excess of unlabelled ligand. The results are expressed as a percent inhibition of control specific binding obtained in the presence of Compound I-1-Z. The IC50 values (concentration causing a half-maximal inhibition of control specific binding) and Hill coefficients (nH) were determined by non-linear regression analysis of the competition curves using Hill equation curve fitting. […]

A1 (h) = molecular target: T1, A1 (h) (Homo sapiens, UniProt P30542); assay: Receptor binding screen, [^3H]DPCPX; settings: 10 uM Concentration of Compound I-1-Z; read-out: Mean Value, percent inhibition of control specific binding: A1 (h)
T1 construct: expressed in transfected cells; host or cells: CHO cells
T1 sequence (P30542 whole entry): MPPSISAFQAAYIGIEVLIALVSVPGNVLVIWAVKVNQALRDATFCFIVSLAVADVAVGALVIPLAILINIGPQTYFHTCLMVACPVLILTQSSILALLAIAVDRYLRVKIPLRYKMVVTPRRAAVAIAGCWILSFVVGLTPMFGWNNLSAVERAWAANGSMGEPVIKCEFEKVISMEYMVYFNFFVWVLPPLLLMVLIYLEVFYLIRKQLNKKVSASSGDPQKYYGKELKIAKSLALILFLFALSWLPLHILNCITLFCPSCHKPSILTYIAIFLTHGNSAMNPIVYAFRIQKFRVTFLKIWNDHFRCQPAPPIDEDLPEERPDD

A2A (h) = molecular target: T2, A2A (h) (Homo sapiens, UniProt P29274); assay: Receptor binding screen, [^3H]CGS 21680; settings: 10 uM Concentration of Compound I-1-Z; read-out: Mean Value, percent inhibition of control specific binding: A2A (h)
T2 construct: expressed in transfected cells; host or cells: HEK-293 cells
T2 sequence (P29274 whole entry): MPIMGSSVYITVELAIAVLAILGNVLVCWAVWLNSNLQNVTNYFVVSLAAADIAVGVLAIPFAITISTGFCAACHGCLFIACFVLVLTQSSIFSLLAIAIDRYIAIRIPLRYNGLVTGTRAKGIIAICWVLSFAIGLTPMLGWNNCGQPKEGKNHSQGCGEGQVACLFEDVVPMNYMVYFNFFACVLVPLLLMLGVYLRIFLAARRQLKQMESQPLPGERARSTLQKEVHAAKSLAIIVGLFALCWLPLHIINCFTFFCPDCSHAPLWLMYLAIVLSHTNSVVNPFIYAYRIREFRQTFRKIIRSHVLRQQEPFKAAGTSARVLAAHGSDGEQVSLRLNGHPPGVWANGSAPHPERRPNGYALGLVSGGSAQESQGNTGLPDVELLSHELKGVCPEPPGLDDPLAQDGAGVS

α2 (non-selective) = assay: Receptor binding screen, [^3H]RX 821002; design: species or system rat; settings: 10 uM Concentration of Compound I-1-Z
Experimental: (§1) For Table 4 below, the specific ligand binding to the receptors is defined as the difference between the total binding and the nonspecific binding determined in the presence of an excess of unlabelled ligand. The results are expressed as a percent inhibition of control specific binding obtained in the presence of Compound I-1-Z. The IC50 values (concentration causing a half-maximal inhibition of control specific binding) and Hill coefficients (nH) were determined by non-linear regression analysis of the competition curves using Hill equation curve fitting. The inhibition constants (Ki) were calculated from the Cheng Prusoff equation (Ki=IC50/(1+(L/KD)), where L=concentration of radioligand in the assay, and KD=affinity of the radioligand for the receptor). In each experiment, the respective reference compound was tested concurrently with Compound I-1-Z in order to assess the assay suitability.

CGRP (h) = molecular target: T3, CGRP (h) (Homo sapiens, UniProt O60894+Q16602); assay: Receptor binding screen, [^125I]hCGRPα; settings: 10 uM Concentration of Compound I-1-Z; read-out: Mean Value, percent inhibition of control specific binding: CGRP (h)
T3 construct: expressed in transfected cells; host or cells: CHO cells
T3 sequence (Q16602 23-461): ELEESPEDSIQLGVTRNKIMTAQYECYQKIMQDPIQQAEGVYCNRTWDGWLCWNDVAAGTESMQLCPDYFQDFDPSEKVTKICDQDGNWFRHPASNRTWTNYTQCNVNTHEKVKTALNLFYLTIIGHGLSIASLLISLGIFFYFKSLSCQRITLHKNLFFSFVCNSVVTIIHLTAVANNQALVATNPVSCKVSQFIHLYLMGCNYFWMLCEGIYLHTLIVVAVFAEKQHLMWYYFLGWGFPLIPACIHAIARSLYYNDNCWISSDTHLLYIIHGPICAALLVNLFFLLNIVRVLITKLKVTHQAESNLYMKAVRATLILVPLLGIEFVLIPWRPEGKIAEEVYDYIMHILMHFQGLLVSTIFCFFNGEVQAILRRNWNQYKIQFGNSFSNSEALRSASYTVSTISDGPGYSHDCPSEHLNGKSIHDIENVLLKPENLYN
T3 sequence (O60894 27-148): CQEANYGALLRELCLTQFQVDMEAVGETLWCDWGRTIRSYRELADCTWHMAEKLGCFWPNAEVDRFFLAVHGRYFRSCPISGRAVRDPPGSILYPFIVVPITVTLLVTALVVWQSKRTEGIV

D1 (h) = molecular target: T4, D1 (h) (Homo sapiens, UniProt P21728); assay: Receptor binding screen, [^3H]SCH 23390; settings: 10 uM Concentration of Compound I-1-Z; read-out: Mean Value, percent inhibition of control specific binding: D1 (h)
T4 construct: expressed in transfected cells; host or cells: CHO cells
T4 sequence (P21728 whole entry): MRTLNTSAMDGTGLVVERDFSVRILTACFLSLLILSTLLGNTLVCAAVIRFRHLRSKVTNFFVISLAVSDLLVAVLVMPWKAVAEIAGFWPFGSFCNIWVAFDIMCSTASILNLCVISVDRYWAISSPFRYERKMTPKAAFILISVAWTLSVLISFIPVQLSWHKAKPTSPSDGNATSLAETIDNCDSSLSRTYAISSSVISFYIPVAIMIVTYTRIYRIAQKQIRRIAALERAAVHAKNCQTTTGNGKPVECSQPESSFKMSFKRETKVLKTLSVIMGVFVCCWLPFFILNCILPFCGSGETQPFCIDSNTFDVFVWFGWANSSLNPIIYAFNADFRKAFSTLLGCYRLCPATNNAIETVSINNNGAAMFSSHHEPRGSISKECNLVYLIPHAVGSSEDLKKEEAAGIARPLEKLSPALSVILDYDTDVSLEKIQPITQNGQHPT

D2S (h) = molecular target: T5, D2S (h) (Homo sapiens, UniProt P14416); assay: Receptor binding screen, [^3H]spiperone; settings: 10 uM Concentration of Compound I-1-Z; read-out: Mean Value, percent inhibition of control specific binding: D2S (h)
T5 construct: expressed in transfected cells; host or cells: HEK-293 cells
T5 sequence (P14416 1-414 isoform P14416-2): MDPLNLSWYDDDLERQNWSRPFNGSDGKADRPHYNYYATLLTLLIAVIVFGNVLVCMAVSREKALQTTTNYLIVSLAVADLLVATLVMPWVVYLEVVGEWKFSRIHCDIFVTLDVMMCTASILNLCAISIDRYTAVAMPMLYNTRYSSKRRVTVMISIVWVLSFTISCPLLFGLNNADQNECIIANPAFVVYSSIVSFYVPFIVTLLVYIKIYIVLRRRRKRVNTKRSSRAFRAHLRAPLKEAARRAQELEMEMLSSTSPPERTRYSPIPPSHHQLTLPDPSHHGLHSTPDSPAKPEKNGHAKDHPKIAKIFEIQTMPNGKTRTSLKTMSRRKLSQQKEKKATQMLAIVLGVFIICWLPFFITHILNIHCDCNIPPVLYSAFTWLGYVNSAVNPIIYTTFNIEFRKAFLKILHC

GAL1 (h) = molecular target: T6, GAL1 (h) (Homo sapiens, UniProt P47211); assay: Receptor binding screen, [^125I]galanin; settings: 10 uM Concentration of Compound I-1-Z; read-out: Mean Value, percent inhibition of control specific binding: GAL1 (h)
T6 construct: expressed in transfected cells; host or cells: HEK-293 cells
T6 sequence (P47211 whole entry): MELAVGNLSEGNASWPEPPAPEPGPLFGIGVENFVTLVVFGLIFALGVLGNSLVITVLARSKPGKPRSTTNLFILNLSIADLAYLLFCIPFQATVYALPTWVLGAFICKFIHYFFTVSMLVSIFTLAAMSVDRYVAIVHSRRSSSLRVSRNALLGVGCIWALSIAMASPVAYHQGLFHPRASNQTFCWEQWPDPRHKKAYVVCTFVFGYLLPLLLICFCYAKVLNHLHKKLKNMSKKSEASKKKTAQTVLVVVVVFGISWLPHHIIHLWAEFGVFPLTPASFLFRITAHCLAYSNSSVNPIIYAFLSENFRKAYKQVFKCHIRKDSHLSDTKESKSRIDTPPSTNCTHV

PDGF = assay: Receptor binding screen, [^125I]PDGF BB, Balb/c 3T3 cells; settings: 10 uM Concentration of Compound I-1-Z
CXCR2 (h) (IL-8B) = molecular target: T7, CXCR2 (h) (IL-8B) (Homo sapiens, UniProt P25025); assay: Receptor binding screen, [^125I]IL-8; settings: 10 uM Concentration of Compound I-1-Z; read-out: Mean Value, percent inhibition of control specific binding: CXCR2 (h) (IL-8B)
T7 construct: expressed in transfected cells; host or cells: HEK-293 cells

H1 (h) = molecular target: T8, H1 (h) (Homo sapiens, UniProt P35367); assay: Receptor binding screen, [^3H]pyrilamine; settings: 10 uM Concentration of Compound I-1-Z; read-out: Mean Value, percent inhibition of control specific binding: H1 (h)
T8 construct: expressed in transfected cells; host or cells: HEK-293 cells
T8 sequence (P35367 whole entry): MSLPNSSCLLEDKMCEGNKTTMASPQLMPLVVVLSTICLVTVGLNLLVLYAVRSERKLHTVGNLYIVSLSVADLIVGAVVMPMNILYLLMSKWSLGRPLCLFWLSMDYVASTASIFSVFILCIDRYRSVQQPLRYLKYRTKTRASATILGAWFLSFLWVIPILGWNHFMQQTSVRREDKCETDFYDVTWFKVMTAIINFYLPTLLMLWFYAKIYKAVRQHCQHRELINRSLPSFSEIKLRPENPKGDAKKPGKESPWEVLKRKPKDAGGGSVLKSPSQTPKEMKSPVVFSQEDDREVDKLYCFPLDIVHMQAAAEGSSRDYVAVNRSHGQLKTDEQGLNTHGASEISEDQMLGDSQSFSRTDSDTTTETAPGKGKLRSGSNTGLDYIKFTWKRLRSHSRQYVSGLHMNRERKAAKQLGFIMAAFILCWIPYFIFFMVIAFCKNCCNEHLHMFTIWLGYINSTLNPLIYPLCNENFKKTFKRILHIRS

NK1 (h) = molecular target: T9, NK1 (h) (Homo sapiens, UniProt P25103); assay: Receptor binding screen, [^125I]BH-SP, U-373MG cells; settings: 10 uM Concentration of Compound I-1-Z; read-out: Mean Value, percent inhibition of control specific binding: NK1 (h)
T9 construct: U-373MG cells; endogenous in cells; host or cells: U-373MG cells
T9 sequence (P25103 whole entry): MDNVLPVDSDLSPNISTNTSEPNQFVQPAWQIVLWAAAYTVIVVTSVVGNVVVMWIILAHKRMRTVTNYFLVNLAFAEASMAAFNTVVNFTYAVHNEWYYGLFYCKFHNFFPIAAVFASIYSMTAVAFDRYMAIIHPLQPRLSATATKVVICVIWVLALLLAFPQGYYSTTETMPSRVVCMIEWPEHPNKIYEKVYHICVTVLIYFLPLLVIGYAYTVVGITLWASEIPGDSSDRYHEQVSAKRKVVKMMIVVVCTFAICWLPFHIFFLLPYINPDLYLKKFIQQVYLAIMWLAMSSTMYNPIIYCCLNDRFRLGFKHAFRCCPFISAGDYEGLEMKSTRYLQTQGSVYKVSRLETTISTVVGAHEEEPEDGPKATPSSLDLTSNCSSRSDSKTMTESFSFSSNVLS

κ (KOP) = molecular target: T10, κ (KOP) (Cavia porcellus, UniProt P41144); assay: Receptor binding screen, [^3H]U 69593, guinea-pig cerebellum; settings: 10 uM Concentration of Compound I-1-Z; read-out: Mean Value, percent inhibition of control specific binding: κ (KOP)
T10 construct: cerebellum; from tissue; host or cells: guinea-pig cerebellum
T10 sequence (P41144 whole entry): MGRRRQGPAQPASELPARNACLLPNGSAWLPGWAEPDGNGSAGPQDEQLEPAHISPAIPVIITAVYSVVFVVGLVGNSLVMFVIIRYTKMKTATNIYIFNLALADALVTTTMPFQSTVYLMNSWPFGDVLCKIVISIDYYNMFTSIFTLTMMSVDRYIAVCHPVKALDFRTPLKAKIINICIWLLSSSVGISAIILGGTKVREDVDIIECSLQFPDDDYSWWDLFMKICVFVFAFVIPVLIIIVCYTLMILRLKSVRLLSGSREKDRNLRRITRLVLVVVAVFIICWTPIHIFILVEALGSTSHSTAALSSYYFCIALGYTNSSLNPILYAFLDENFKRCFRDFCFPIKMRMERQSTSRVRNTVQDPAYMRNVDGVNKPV
Experimental: as §1

5-HT7 (h) = molecular target: T11, 5-HT7 (h) (Homo sapiens, UniProt P34969); assay: Receptor binding screen, [^3H]LSD; settings: 10 uM Concentration of Compound I-1-Z; read-out: Mean Value, percent inhibition of control specific binding: 5-HT7 (h)
T11 construct: expressed in transfected cells; host or cells: CHO cells
T11 sequence (P34969 whole entry): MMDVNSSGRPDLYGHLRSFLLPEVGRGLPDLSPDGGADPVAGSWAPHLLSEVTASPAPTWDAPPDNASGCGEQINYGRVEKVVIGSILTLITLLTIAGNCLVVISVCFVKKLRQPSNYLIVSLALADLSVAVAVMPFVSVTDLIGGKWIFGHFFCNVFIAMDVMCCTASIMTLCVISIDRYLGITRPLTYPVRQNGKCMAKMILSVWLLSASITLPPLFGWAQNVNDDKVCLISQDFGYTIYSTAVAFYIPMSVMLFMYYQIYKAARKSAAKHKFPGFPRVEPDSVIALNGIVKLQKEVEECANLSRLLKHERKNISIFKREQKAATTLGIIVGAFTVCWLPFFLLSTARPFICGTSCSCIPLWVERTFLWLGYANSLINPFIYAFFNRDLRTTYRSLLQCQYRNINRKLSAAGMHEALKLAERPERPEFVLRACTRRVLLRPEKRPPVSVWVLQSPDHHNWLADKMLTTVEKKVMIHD

V1a (h) = molecular target: T12, V1a (h) (Homo sapiens, UniProt P37288); assay: Receptor binding screen, [^3H]AVP; settings: 10 uM Concentration of Compound I-1-Z; read-out: Mean Value, percent inhibition of control specific binding: V1a (h)
T12 construct: expressed in transfected cells; host or cells: CHO cells
T12 sequence (P37288 whole entry): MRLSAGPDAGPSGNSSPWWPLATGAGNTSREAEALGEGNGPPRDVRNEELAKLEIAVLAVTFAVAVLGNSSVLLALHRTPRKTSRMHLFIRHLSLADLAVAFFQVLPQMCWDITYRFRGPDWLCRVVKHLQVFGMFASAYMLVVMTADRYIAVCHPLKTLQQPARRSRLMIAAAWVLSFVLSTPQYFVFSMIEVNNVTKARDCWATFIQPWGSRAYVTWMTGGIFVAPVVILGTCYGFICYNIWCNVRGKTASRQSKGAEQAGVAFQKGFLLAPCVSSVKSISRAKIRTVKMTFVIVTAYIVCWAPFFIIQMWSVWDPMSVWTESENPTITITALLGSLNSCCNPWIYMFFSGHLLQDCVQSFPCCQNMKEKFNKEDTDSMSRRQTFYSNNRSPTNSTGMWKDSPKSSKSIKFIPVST

`COc1ccc(C/C(=C/F)CN)cc1.Cl` [Compound I-1-Z, (Z)-3-Fluoro-2-(4-methoxybenzyl)-allylamine hydrochloride] was tested, and the “Ligand binding to the listed receptors” value [1] was “not affected”, the inhibition at 10 µM (A1 (h)) was -3% and the inhibition at 10 µM (A2A (h)) was 13%. The “Mean Value, percent inhibition of control specific binding: α2 (non-selective)” value (α2 (non-selective)) was 23%, the inhibition at 10 µM (CGRP (h)) was -7% and the inhibition at 10 µM (D1 (h)) was -2%. For the same molecule, the inhibition at 10 µM (D2S (h)) was -4%, the inhibition at 10 µM (GAL1 (h)) was 0% and the “Mean Value, percent inhibition of control specific binding: PDGF” value (PDGF) was −14%. It also gave an inhibition at 10 µM (CXCR2 (h) (IL-8B)) of -8%, an inhibition at 10 µM (H1 (h)) of 3% and an inhibition at 10 µM (NK1 (h)) of -6%. The inhibition at 10 µM (κ (KOP)) was -18%, the inhibition at 10 µM (5-HT7 (h)) was 13% and the inhibition at 10 µM (V1a (h)) was 9%.
